Experiments:
Test in all cases: relative viability (nuclei count vs DMSO), 5 days (fraction); higher = more cells survive
[1] = compound: CC1(C)CCC(CN2CCN(c3ccc(C(=O)NS(=O)(=O)c4ccc(NCC5CCOCC5)c([N+](=O)[O-])c4)c(Oc4cnc5[nH]ccc5c4)c3)CC2)=C(c2ccc(Cl)cc2)C1 [Venetoclax] + COc1cccc2cc(-c3nc([C@H]4CC[C@H](C(=O)O)CC4)n4ncnc(N)c34)[nH]c12 [OSI-027] (partner 0.5 µM)
Outline: (§1)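 Lung cancer cell lines, seeded in 1536-well plates, were treated the following day by pin tool with a single drug or with five library-drug doses (not always all listed) in √10 steps on top of a fixed anchor-drug dose. Cells were fixed and nuclei stained in one step after 5 days, and nuclei were counted. Relative viability is the nuclei count for treated wells divided by that for vehicle wells, reported as medians of duplicate plates.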

[2] = compound: Cn1cnc2c(F)c(Nc3ccc(Br)cc3Cl)c(C(=O)NOCCO)cc21 [Selumetinib] + COc1cccc2cc(-c3nc([C@H]4CC[C@H](C(=O)O)CC4)n4ncnc(N)c34)[nH]c12 [OSI-027] (partner 0.5 µM)
Outline: as §1

[3] = compound: CC1(C)CCC(CN2CCN(c3ccc(C(=O)NS(=O)(=O)c4ccc(NCC5CCOCC5)c([N+](=O)[O-])c4)c(Oc4cnc5[nH]ccc5c4)c3)CC2)=C(c2ccc(Cl)cc2)C1 [Venetoclax] + C[C@@H](Oc1cc(-c2cnn(C3CCNCC3)c2)cnc1N)c1c(Cl)ccc(F)c1Cl [Crizotinib] (partner 1 µM)
Outline: as §1

[4] = compound: CC1(C)CCC(CN2CCN(c3ccc(C(=O)NS(=O)(=O)c4ccc(NCC5CCOCC5)c([N+](=O)[O-])c4)c(Oc4cnc5[nH]ccc5c4)c3)CC2)=C(c2ccc(Cl)cc2)C1 [Venetoclax] + Nc1ncn([C@H]2C[C@H](O)[C@@H](CO)O2)c(=O)n1 [Decitabine] (partner 2 µM)
Outline: as §1

Cell Line	relative viability ([1]; first compound 0.01 µM)	relative viability ([1]; first compound 0.03162 µM)	relative viability ([1]; first compound 0.1 µM)	relative viability ([1]; first compound 0.3162 µM)	relative viability ([1]; first compound 1 µM)	relative viability ([2]; first compound 0.02 µM)	relative viability ([2]; first compound 0.06325 µM)	relative viability ([2]; first compound 0.2 µM)	relative viability ([2]; first compound 0.6325 µM)	relative viability ([3]; first compound 0.01 µM)	relative viability ([3]; first compound 0.03162 µM)	relative viability ([3]; first compound 0.1 µM)	relative viability ([3]; first compound 0.3162 µM)	relative viability ([3]; first compound 1 µM)	relative viability ([4]; first compound 0.01 µM)	relative viability ([4]; first compound 0.03162 µM)	relative viability ([4]; first compound 0.1 µM)	relative viability ([4]; first compound 0.3162 µM)	relative viability ([4]; first compound 1 µM)
COR-L23	0.661	0.839	0.713	0.687	0.696	0.798	0.782	0.753	0.565	0.631	0.696	0.601	0.778	0.543	0.458	0.478	0.444	0.454	0.39
LCLC-103H	0.5	0.492	0.502	0.404	0.404	0.474	0.425	0.453	0.44	1.05	1.2	1.04	0.985	1.05	0.767	0.713	0.733	0.752	0.788
NCI-H1993	0.562	0.505	0.519	0.486	0.605	0.553	0.585	0.585	0.632	0.854	0.851	0.906	0.838	0.774	0.505	0.673	0.541	0.621	0.552
NCI-H2087	0.534	0.735	0.456	0.539	0.435	0.466	0.434	0.256	0.177	0.931	0.805	1.11	1.03	0.863	0.316	0.335	0.267	0.23	0.29
COR-L 105	0.71	0.737	0.552	0.707	0.73	0.612	0.46	0.467	0.343	0.717	0.638	0.669	0.738	0.698	0.581	0.589	0.694	0.76	0.652
SW 1573	0.573	0.658	0.585	0.506	0.529	0.515	0.449	0.464	0.458	0.81	0.808	0.752	0.823	0.732	0.526	0.553	0.572	0.475	0.437
NCI-H1355	0.409	0.5	0.38	0.386	0.355	0.343	0.33	0.278	0.277	1.07	1.14	1.07	0.984	1.04	0.372	0.351	0.402	0.37	0.362
RERF-LC-KJ	0.555	0.552	0.577	0.577	0.521	0.535	0.477	0.526	0.472	0.742	0.872	1.08	0.879	0.785	0.69	0.73	0.69	0.666	0.611
NCI-H727	0.68	0.762	0.525	0.63	0.723	0.603	0.395	0.332	0.427	0.838	0.922	0.912	0.976	0.673	0.918	1.07	1.04	0.704	0.891
NCI-H1734	0.616	0.568	0.515	0.57	0.542	0.557	0.635	0.539	0.537	0.733	0.833	0.724	0.73	0.614	0.464	0.515	0.504	0.474	0.493
NCI-H2126	0.691	0.794	0.719	0.692	0.636	0.676	0.597	0.577	0.606	0.986	1.02	1.04	0.971	0.969	0.579	0.616	0.601	0.56	0.548
NCI-H1792	0.695	0.751	0.603	0.638	0.721	0.761	0.727	0.67	0.611	0.938	0.946	0.983	0.98	0.93	0.522	0.506	0.468	0.502	0.463
NCI-H23	0.592	0.625	0.525	0.683	0.439	0.605	0.561	0.526	0.443	0.488	0.491	0.353	0.507	0.394	0.322	0.298	0.337	0.316	0.317
EMC-BAC-2	0.405	0.441	0.371	0.403	0.353	0.42	0.447	0.511	0.483	0.687	0.774	0.779	0.775	0.71	0.983	0.989	0.981	1.02	0.956
NCI-H2023	0.44	0.363	0.313	0.427	0.312	0.392	0.348	0.318	0.375	0.541	0.737	0.721	0.552	0.53	0.218	0.23	0.23	0.237	0.234
NCI-H647	0.69	0.769	0.625	0.589	0.509	0.717	0.512	0.614	0.478	0.803	1.35		0.974	0.722	0.379	0.562	0.461	0.424	0.332

From the supplement of paper PMC10307832
